Where two headings read alike, the source gives them in different places.
Tests used:
Assay in all cases: HotSpot kinase profiling
Type in all cases: biochemical
ABL2/ARG = biological target: T1, ABL2/ARG (Homo sapiens, UniProt P42684)
T1 construct: purchased Reaction Biology Corp
Method in brief: (§1)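 Percent inhibition, averaged when run more than once and referenced to a DMSO negative control, came from a radioactive filter-binding readout on P81 paper. Reactions of kinase with freshly made substrate and cofactors ran for 2 h at room temperature.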

BRK = biological target: T2, BRK (Homo sapiens, UniProt Q13882)
T2 construct: purchased Reaction Biology Corp
Method in brief: as §1

CAMK1b = biological target: T3, CAMK1b (Homo sapiens, UniProt Q6P2M8)
T3 construct: purchased Reaction Biology Corp
Method in brief: as §1

CDK1/cyclin E = biological target: T4, CDK1/cyclin E (Homo sapiens, UniProt P06493)
T4 construct: purchased Reaction Biology Corp
Method in brief: as §1

CDK2/cyclin E = biological target: T5, CDK2/cyclin E (Homo sapiens, UniProt P24941)
T5 construct: purchased Reaction Biology Corp
Method in brief: as §1

CDK5/p35 = biological target: T6, CDK5/p35 (Homo sapiens, UniProt Q00535)
T6 construct: purchased Reaction Biology Corp
Method in brief: as §1

CK1a1 = biological target: T7, CK1a1 (Homo sapiens, UniProt P48729)
T7 construct: purchased Reaction Biology Corp
Method in brief: as §1

CLK3 = biological target: T8, CLK3 (Homo sapiens, UniProt P49761)
T8 construct: purchased Reaction Biology Corp
Method in brief: as §1

DDR1 = biological target: T9, DDR1 (Homo sapiens, UniProt Q08345)
T9 construct: purchased Reaction Biology Corp
Method in brief: as §1

DYRK1B = biological target: T10, DYRK1B (Homo sapiens, UniProt Q9Y463)
T10 construct: purchased Reaction Biology Corp
Method in brief: as §1

HCK = biological target: T11, HCK (Homo sapiens, UniProt P08631)
T11 construct: purchased Reaction Biology Corp
Method in brief: as §1

JAK2 = biological target: T12, JAK2 (Homo sapiens, UniProt O60674)
T12 construct: purchased Reaction Biology Corp
Method in brief: as §1

MARK2/PAR-1Ba = biological target: T13, MARK2/PAR-1Ba (Homo sapiens, UniProt Q7KZI7)
T13 construct: purchased Reaction Biology Corp
Method in brief: as §1

MKK4 = biological target: T14, MKK4 (Homo sapiens, UniProt P45985)
T14 construct: purchased Reaction Biology Corp
T14 sequence (P45985 1-399): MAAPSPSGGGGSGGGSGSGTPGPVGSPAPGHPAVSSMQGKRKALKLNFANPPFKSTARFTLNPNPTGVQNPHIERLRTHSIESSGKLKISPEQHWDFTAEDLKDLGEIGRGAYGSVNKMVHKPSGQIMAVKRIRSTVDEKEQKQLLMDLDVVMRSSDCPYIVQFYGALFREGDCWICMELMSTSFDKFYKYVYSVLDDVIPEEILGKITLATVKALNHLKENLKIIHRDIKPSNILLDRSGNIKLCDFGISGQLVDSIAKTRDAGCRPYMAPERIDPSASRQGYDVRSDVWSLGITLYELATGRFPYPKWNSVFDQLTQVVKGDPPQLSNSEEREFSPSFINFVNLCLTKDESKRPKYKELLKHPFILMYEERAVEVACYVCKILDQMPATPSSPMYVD
Method in brief: as §1

P38b/MAPK11 = biological target: T15, P38b/MAPK11 (Homo sapiens, UniProt Q15759)
T15 construct: purchased Reaction Biology Corp
Method in brief: as §1

P70S6Kb/RPS6KB2 = biological target: T16, P70S6Kb/RPS6KB2 (Homo sapiens, UniProt Q9UBS0)
T16 construct: purchased Reaction Biology Corp
Method in brief: as §1

PIM2 = biological target: T17, PIM2 (Homo sapiens, UniProt Q9P1W9)
T17 construct: purchased Reaction Biology Corp
Method in brief: as §1

RIPK2 = biological target: T18, RIPK2 (Homo sapiens, UniProt O43353)
T18 construct: purchased Reaction Biology Corp
Method in brief: as §1

ROS/ROS1 = biological target: T19, ROS/ROS1 (Homo sapiens, UniProt P08922)
T19 construct: purchased Reaction Biology Corp
Method in brief: as §1

RSK1 = biological target: T20, RSK1 (Homo sapiens, UniProt Q15418)
T20 construct: purchased Reaction Biology Corp
Method in brief: as §1

TESK1 = biological target: T21, TESK1 (Homo sapiens, UniProt Q15569)
T21 construct: purchased Reaction Biology Corp
Method in brief: as §1

[1] = read-out: % Enzyme Activity (relative to DMSO controls) Run 1
[2] = read-out: % Enzyme Activity (relative to DMSO controls) Run 2

T21 sequence (Q15569 whole entry): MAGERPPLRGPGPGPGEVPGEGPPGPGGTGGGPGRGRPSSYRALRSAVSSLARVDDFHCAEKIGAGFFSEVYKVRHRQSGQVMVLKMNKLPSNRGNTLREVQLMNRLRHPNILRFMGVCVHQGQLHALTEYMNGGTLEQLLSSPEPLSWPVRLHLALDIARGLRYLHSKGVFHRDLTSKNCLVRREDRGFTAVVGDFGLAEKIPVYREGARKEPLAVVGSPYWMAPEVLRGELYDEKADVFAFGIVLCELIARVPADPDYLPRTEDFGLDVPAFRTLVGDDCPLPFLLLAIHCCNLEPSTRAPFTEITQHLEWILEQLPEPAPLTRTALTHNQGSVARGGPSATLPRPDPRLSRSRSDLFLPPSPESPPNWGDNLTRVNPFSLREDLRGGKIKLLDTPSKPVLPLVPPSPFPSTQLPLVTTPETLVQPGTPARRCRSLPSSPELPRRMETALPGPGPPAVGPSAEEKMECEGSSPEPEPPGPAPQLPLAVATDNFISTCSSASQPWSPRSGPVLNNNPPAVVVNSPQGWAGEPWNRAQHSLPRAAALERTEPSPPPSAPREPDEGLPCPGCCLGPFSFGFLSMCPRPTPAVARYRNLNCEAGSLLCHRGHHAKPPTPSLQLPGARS
T20 sequence (Q15418 whole entry): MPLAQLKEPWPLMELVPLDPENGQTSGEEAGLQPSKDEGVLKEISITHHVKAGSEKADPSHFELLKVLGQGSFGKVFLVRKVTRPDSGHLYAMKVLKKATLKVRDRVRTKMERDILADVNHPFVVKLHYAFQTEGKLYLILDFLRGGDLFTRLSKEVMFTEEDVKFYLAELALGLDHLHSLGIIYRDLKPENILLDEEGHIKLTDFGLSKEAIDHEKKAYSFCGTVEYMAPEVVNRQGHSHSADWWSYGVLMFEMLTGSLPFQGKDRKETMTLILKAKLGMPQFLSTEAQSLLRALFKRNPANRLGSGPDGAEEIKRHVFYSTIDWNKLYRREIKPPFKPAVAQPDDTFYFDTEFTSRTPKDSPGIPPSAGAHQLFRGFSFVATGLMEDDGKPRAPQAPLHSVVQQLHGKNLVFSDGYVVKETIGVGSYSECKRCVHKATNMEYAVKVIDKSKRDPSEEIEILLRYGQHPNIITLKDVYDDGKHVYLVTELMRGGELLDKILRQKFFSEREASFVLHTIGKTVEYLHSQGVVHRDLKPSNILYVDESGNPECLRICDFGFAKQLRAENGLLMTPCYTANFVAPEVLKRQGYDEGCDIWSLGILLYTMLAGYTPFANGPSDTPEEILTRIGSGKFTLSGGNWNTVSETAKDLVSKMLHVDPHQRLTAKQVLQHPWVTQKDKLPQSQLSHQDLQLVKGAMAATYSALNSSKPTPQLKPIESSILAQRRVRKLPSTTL
T18 sequence (O43353 whole entry): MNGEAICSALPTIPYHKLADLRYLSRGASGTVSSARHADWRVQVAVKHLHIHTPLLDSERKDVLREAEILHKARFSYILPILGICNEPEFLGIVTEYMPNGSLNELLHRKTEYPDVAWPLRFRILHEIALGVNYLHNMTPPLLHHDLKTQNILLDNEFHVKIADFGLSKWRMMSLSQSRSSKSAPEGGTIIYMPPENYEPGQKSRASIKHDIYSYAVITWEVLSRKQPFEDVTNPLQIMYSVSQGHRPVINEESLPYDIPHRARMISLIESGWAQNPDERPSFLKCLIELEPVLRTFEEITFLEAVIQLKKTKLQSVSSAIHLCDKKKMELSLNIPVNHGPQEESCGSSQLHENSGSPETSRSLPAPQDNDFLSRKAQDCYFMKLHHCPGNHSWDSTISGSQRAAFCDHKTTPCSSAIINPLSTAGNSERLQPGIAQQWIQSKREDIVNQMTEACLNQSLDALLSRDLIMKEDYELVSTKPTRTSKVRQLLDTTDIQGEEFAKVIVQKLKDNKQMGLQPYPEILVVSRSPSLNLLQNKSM
T10 sequence (Q9Y463 whole entry): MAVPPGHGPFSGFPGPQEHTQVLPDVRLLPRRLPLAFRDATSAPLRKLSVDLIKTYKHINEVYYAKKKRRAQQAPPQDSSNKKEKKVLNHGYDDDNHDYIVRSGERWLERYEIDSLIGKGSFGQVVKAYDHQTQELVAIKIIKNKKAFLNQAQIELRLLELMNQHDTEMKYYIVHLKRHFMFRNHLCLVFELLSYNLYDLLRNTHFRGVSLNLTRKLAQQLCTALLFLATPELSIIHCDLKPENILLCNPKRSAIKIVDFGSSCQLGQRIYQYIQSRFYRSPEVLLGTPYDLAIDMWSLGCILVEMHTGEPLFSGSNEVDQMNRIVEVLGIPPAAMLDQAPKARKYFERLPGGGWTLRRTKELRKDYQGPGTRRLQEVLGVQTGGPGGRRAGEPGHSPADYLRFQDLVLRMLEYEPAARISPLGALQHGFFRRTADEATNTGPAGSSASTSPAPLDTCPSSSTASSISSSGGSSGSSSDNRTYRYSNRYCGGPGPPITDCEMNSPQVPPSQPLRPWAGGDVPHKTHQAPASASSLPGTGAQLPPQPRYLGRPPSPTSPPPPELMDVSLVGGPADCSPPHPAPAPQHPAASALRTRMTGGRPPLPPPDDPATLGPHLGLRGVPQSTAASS
T9 sequence (Q08345 19-913): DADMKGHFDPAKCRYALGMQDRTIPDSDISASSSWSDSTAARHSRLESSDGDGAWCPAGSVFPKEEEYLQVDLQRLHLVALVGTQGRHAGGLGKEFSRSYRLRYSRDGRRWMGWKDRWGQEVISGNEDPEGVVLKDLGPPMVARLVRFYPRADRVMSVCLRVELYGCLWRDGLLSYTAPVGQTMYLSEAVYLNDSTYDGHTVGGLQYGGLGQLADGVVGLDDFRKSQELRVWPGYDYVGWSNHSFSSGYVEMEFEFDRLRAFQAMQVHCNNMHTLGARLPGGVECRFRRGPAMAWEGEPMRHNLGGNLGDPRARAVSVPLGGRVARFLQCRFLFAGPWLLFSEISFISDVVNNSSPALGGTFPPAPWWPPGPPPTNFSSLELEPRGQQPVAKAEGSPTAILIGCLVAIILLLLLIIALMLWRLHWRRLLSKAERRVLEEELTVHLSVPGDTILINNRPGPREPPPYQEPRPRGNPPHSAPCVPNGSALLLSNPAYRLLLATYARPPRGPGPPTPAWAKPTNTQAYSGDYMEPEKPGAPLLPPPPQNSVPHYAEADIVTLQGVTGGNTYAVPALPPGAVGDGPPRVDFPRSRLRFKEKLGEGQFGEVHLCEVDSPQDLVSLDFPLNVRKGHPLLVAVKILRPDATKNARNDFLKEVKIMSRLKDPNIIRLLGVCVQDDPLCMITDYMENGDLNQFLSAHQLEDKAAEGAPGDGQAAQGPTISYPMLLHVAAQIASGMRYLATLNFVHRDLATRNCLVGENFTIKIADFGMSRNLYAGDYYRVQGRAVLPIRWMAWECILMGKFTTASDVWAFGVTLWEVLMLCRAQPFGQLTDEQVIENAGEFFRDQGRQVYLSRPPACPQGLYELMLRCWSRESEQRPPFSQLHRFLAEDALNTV
T11 sequence (P08631 whole entry): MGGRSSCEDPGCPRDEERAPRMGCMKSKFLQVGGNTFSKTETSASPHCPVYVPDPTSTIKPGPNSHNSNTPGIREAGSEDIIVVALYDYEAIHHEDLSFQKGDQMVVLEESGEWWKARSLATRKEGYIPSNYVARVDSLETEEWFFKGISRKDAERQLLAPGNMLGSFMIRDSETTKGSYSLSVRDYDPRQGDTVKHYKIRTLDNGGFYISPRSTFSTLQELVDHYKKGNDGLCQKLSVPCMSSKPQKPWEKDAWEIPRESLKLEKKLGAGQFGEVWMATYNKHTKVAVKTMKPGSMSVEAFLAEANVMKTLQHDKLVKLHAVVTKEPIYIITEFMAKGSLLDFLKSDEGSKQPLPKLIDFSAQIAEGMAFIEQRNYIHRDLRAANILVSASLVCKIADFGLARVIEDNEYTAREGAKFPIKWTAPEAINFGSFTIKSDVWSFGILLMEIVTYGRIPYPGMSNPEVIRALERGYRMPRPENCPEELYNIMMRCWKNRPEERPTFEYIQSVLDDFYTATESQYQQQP
T7 sequence (P48729 whole entry): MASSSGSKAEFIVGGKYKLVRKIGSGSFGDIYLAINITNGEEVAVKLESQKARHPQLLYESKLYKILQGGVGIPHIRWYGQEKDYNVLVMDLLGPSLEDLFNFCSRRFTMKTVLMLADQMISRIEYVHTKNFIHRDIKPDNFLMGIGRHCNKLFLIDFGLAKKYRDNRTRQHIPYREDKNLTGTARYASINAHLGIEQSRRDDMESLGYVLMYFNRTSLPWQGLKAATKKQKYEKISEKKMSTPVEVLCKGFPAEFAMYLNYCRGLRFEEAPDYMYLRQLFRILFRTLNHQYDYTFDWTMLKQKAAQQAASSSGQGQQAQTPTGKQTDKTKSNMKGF
T2 sequence (Q13882 whole entry): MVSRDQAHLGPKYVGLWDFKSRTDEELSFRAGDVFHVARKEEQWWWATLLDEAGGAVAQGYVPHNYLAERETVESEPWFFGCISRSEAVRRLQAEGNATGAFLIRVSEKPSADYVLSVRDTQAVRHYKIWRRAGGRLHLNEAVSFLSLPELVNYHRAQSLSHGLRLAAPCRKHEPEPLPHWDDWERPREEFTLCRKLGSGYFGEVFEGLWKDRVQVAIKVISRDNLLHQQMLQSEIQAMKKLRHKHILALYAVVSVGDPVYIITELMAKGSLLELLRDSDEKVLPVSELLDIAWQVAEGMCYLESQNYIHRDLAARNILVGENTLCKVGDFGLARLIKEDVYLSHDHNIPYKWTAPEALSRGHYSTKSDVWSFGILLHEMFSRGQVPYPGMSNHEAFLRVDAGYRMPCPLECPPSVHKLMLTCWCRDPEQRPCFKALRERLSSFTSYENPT

Compound: C=CC(=O)Nc1cccc(Nc2nc(Nc3ccc(OCCOC)c(F)c3)ncc2F)c1 [Compound 2]
- inhibition at 3 µM (ABL2/ARG): 62.8%
- remaining activity at 3 µM (ABL2/ARG; [1]): 37.3%
- remaining activity at 3 µM (ABL2/ARG; [2]): 37.1%
- inhibition at 3 µM (BRK): 75%
- remaining activity at 3 µM (BRK; [1]): 25.1%
- remaining activity at 3 µM (BRK; [2]): 25%
- inhibition at 3 µM (CAMK1b): -4.43%
- remaining activity at 3 µM (CAMK1b; [1]): 104%
- remaining activity at 3 µM (CAMK1b; [2]): 105%
- inhibition at 3 µM (CDK1/cyclin E): -1.3%
- remaining activity at 3 µM (CDK1/cyclin E; [1]): 100%
- remaining activity at 3 µM (CDK1/cyclin E; [2]): 102%
- inhibition at 3 µM (CDK2/cyclin E): 10%
- remaining activity at 3 µM (CDK2/cyclin E; [1]): 87.9%
- remaining activity at 3 µM (CDK2/cyclin E; [2]): 92%
- inhibition at 3 µM (CDK5/p35): 4.49%
- remaining activity at 3 µM (CDK5/p35; [1]): 95%
- remaining activity at 3 µM (CDK5/p35; [2]): 96.1%
- inhibition at 3 µM (CK1a1): -6.67%
- remaining activity at 3 µM (CK1a1; [1]): 108%
- remaining activity at 3 µM (CK1a1; [2]): 106%
- inhibition at 3 µM (CLK3): 6.9%
- remaining activity at 3 µM (CLK3; [1]): 90.4%
- remaining activity at 3 µM (CLK3; [2]): 95.8%
- inhibition at 3 µM (DDR1): 75.1%
- remaining activity at 3 µM (DDR1; [1]): 25.7%
- remaining activity at 3 µM (DDR1; [2]): 24.1%
- inhibition at 3 µM (DYRK1B): 20.2%
- remaining activity at 3 µM (DYRK1B; [1]): 78.6%
- remaining activity at 3 µM (DYRK1B; [2]): 80.9%
- inhibition at 3 µM (HCK): 29.5%
- remaining activity at 3 µM (HCK; [1]): 72%
- remaining activity at 3 µM (HCK; [2]): 69%
- inhibition at 3 µM (JAK2): -11.6%
- remaining activity at 3 µM (JAK2; [1]): 109%
- remaining activity at 3 µM (JAK2; [2]): 115%
- inhibition at 3 µM (MARK2/PAR-1Ba): 1.3%
- remaining activity at 3 µM (MARK2/PAR-1Ba; [1]): 99.6%
- remaining activity at 3 µM (MARK2/PAR-1Ba; [2]): 97.8%
- inhibition at 3 µM (MKK4): -16.6%
- remaining activity at 3 µM (MKK4; [1]): 117%
- remaining activity at 3 µM (MKK4; [2]): 116%
- inhibition at 3 µM (P38b/MAPK11): -1.41%
- remaining activity at 3 µM (P38b/MAPK11; [1]): 102%
- remaining activity at 3 µM (P38b/MAPK11; [2]): 101%
- inhibition at 3 µM (P70S6Kb/RPS6KB2): 4.15%
- remaining activity at 3 µM (P70S6Kb/RPS6KB2; [1]): 95.6%
- remaining activity at 3 µM (P70S6Kb/RPS6KB2; [2]): 96.1%
- inhibition at 3 µM (PIM2): -32.5%
- remaining activity at 3 µM (PIM2; [1]): 136%
- remaining activity at 3 µM (PIM2; [2]): 129%
- inhibition at 3 µM (RIPK2): 23.7%
- remaining activity at 3 µM (RIPK2; [1]): 77.6%
- remaining activity at 3 µM (RIPK2; [2]): 75%
- inhibition at 3 µM (ROS/ROS1): 86.6%
- remaining activity at 3 µM (ROS/ROS1; [1]): 13.5%
- remaining activity at 3 µM (ROS/ROS1; [2]): 13.3%
- inhibition at 3 µM (RSK1): 27.1%
- remaining activity at 3 µM (RSK1; [1]): 73.3%
- remaining activity at 3 µM (RSK1; [2]): 72.5%
- inhibition at 3 µM (TESK1): 2.13%
- remaining activity at 3 µM (TESK1; [1]): 97.2%
- remaining activity at 3 µM (TESK1; [2]): 98.5%

— US9492471B2, “Methods of treating a disease or disorder associated with Bruton'S Tyrosine Kinase” (Celgene Avilomics Research, Inc., priority 2013, dated 2016)
